Measurements from patent US11590139B2, “Substituted aminopurine compounds, compositions thereof, and methods of treatment therewith” (Signal Pharmaceuticals, LLC, priority 2014, dated 2023).

Each molecule was assayed on Lox-IMVI melanoma cell line (assay: Lox-IMVI anti-proliferative assay (growth inhibition, Cell Titer-Glo)). Conditions: Homo sapiens; IC50 activity level in the cell-based Lox-IMVI anti-proliferative assay; read-out: Activity.
Format: cell-based, human
In short: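 RPMI/10% FBS; cmpd 0.5 nM–10 μM, 3-fold ×10, duplicate, 0.2% DMSO final; 72 h, 37 °C, 5% CO2. ATP-luminescence readout at t0 and 72 h. IC50 = 50% of DMSO control, 4-parameter logistic fit.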

Row | IC50 [nM] | Compound
1 | 250 to 500 | NC(=O)[C@H]1CC[C@@H](n2c(Nc3c(F)cc(Cl)cc3Cl)nc3cnc(NC4CCCC4)nc32)CC1 [Example 122, (1s,4s)-4-(2-(cyclopentylamino)-8-(2,4-dichloro-6-fluorophenylamino)-9H-purin-9-yl)cyclohexanecarboxamide]
2 | > 1000 | NC(=O)[C@H]1CC[C@@H](n2c(Nc3c(F)cc(Cl)cc3Cl)nc3cnc(NC4CCC4)nc32)CC1 [Example 130, (1s,4s)-4-(2-(cyclobutylamino)-8-(2,4-dichloro-6-fluorophenylamino)-9H-purin-9-yl)cyclohexanecarboxamide]
3 | > 1000 | CC[C@H](C)Nc1ncc2nc(Nc3c(F)cccc3F)n([C@H]3CC[C@@H](C(N)=O)CC3)c2n1 [Example 335, (1R,4s)-4-(2-(sec-butylamino)-8-(2,6-difluorophenylamino)-9H-purin-9-yl)cyclohexanecarboxamide]
4 | > 1000 | NC(=O)[C@H]1CC[C@@H](n2c(Nc3ccc(Cl)cc3Cl)nc3cnc(N[C@@H]4CC[C@@H](O)C4)nc32)CC1 [Example 219, (1S,4s)-4-(8-(2,4-dichlorophenylamino)-2-((1R,3R)-3-hydroxycyclopentylamino)-9H-purin-9-yl)cyclohexanecarboxamide]
5 | > 1000 | Cc1cc(F)cc(Cl)c1Nc1nc2cnc(NC3CCOCC3)nc2n1[C@H]1CC[C@@H](C(N)=O)CC1 [Example 74, (1s,4s)-4-(8-(2-chloro-4-fluoro-6-methylphenylamino)-2-(tetrahydro-2H-pyran-4-ylamino)-9H-purin-9-yl)cyclohexanecarboxamide]
6 | 500 to 1000 | NC(=O)[C@H]1CC[C@@H](n2c(Nc3c(Cl)cc(Cl)cc3Cl)nc3cnc(N[C@H]4CC[C@H](O)C4)nc32)CC1 [Example 330, (1R,4s)-4-(2-((1S,3S)-3-hydroxycyclopentylamino)-8-(2,4,6-trichlorophenylamino)-9H-purin-9-yl)cyclohexanecarboxamide]
7 | > 1000 | NC(=O)[C@H]1CC[C@@H](n2c(Nc3c(Cl)cc(F)cc3Cl)nc3cnc(N[C@H]4CCC[C@@H]4O)nc32)CC1 [Example 272, (1R,4s)-4-(8-(2,6-dichloro-4-fluorophenylamino)-2-((1S,2S)-2-hydroxycyclopentylamino)-9H-purin-9-yl)cyclohexanecarboxamide]
8 | > 1000 | C[C@@H]1CC[C@@H](Nc2ncc3nc(Nc4c(Cl)cc(F)cc4Cl)n([C@H]4CC[C@@H](C(N)=O)CC4)c3n2)C[C@H]1O [Example 355, (1S,4s)-4-(8-(2,6-dichloro-4-fluorophenylamino)-2-((1R,3R,4R)-3-hydroxy-4-methylcyclohexylamino)-9H-purin-9-yl)cyclohexanecarboxamide]
9 | > 1000 | NC(=O)[C@H]1CC[C@@H](n2c(Nc3c(Cl)cc(Cl)cc3Cl)nc3cnc(N[C@H]4CCC[C@@H]4O)nc32)CC1 [Example 270, (1R,4s)-4-(2-((1S,2S)-2-hydroxycyclopentylamino)-8-(2,4,6-trichlorophenylamino)-9H-purin-9-yl)cyclohexanecarboxamide]
10 | > 1000 | NC(=O)[C@H]1CC[C@@H](n2c(Nc3c(F)cc(Cl)cc3F)nc3cnc(N[C@H]4CCC[C@@H](O)C4)nc32)CC1 [Example 372, (1R,4s)-4-(8-(4-chloro-2,6-difluorophenylamino)-2-((1S,3R)-3-hydroxycyclohexylamino)-9H-purin-9-yl)cyclohexanecarboxamide]

Same assay, conditions: Homo sapiens; Lox-IMVI anti-proliferative assay, IC50 activity level; read-out: Activity

Row | IC50 [nM] | Compound
11 | 250 to 500 | C[C@]1(C(N)=O)CC[C@@H](n2c(Nc3c(F)cc(Cl)cc3F)nc3cnc(NC4CCCC4)nc32)CC1 [Example 559, (1s,4s)-4-(8-(4-chloro-2,6-difluorophenylamino)-2-(cyclopentylamino)-9H-purin-9-yl)-1-methylcyclohexanecarboxamide]
12 | < 250 | C[C@]1(C(N)=O)CC[C@@H](n2c(Nc3c(F)cc(C#N)cc3Cl)nc3cnc(NC4CC(F)(F)C4)nc32)CC1 [Example 583, (1s,4s)-4-(8-(2-chloro-4-cyano-6-fluorophenylamino)-2-(3,3-difluorocyclobutylamino)-9H-purin-9-yl)-1-methylcyclohexanecarboxamide]
13 | 250 to 500 | NC(=O)[C@H]1CC[C@@H](n2c(Nc3c(F)cc(Cl)cc3F)nc3cnc(N[C@H]4CCC(F)(F)C4)nc32)CC1 [Example 587, (1R,4s)-4-(8-(4-chloro-2,6-difluorophenylarnino)-2-((S)-3,3-difluorocyclopentylamino)-9H-purin-9-yl)cyclohexanecarboxamide]
14 | > 1000 | NC(=O)[C@H]1CC[C@@H](n2c(Nc3c(Cl)cc(OC(F)(F)F)cc3Cl)nc3cnc(NC4CCCC4)nc32)CC1 [Example 597, (1s,4s)-4-(2-(cyclopentylamino)-8-(2,6-dichloro-4-(trifluoromethoxy)phenylamino)-9H-purin-9-yl)cyclohexanecarboxamide]

Second part, the molecule before the results:

Row | Compound | IC50 [nM]
15 | C[C@]1(O)CCC[C@@H](Nc2ncc3nc(Nc4c(F)cc(Cl)cc4F)n([C@H]4CC[C@@H](C(N)=O)CC4)c3n2)C1 [Example 426, (1S,4s)-4-(8-(4-chloro-2,6-difluorophenylamino)-2-((1R,3S)-3-hydroxy-3-methylcyclohexylamino)-9H-purin-9-yl)cyclohexanecarboxamide] | > 1000
16 | NC(=O)[C@H]1CC[C@@H](n2c(Nc3c(F)cc(Cl)cc3F)nc3cnc(N[C@H]4CCC[C@H](O)C4)nc32)CC1 [Example 460, (1R,4s)-4-(8-(4-chloro-2,6-difluorophenylamino)-2-((1S,3S)-3-hydroxycyclohexylamino)-9H-purin-9-yl)cyclohexanecarboxamide] | > 1000
17 | N#Cc1cc(Cl)c(Nc2nc3cnc(NC4CC(F)(F)C4)nc3n2[C@H]2CC[C@@H](C(N)=O)CC2)c(Cl)c1 [Example 399, (1s,4s)-4-(8-(2,6-dichloro-4-cyanophenylamino)-2-(3,3-difluorocyclobutylamino)-9H-purin-9-yl)cyclohexanecarboxamide] | 250 to 500
18 | NC(=O)[C@H]1CC[C@@H](n2c(Nc3c(F)cc(Cl)cc3Cl)nc3cnc(N[C@H]4CCC[C@H](O)C4)nc32)CC1 [Example 464, (1R,4s)-4-(8-(2,4-dichloro-6-fluorophenylamino)-2-((1S,3S)-3-hydroxycyclohexylamino)-9H-purin-9-yl)cyclohexanecarboxamide] | 500 to 1000
19 | C[C@]1(C(N)=O)CC[C@@H](n2c(Nc3c(F)cc(Cl)cc3Cl)nc3cnc(NC4CCC(F)(F)CC4)nc32)CC1 [Example 528, (1s,4s)-4-(8-(2,4-dichloro-6-fluorophenylamino)-2-(4,4-difluorocyclohexylamino)-9H-purin-9-yl)-1-methylcyclohexanecarboxamide] | < 250

Same assay, conditions: Homo sapiens; Lox-IMVI anti-proliferative assay, cell-based; read-out: Activity (IC50 activity level)

Row | IC50 [nM] | Compound
20 | > 1000 | CC(=O)N1CCC[C@@H](Nc2ncc3nc(Nc4c(Cl)cccc4Cl)n([C@H]4CC[C@@H](C(N)=O)CC4)c3n2)C1 [Example 800, (1S,4s)-4-(2-((R)-1-acetylpiperidin-3-ylamino)-8-(2,6-dichlorophenylamino)-9H-purin-9-yl)cyclohexanecarboxamide]

Same assay, conditions: Homo sapiens; Lox-IMVI melanoma cell line, anti-proliferative assay; read-out: Activity (IC50 activity level)

Row | IC50 [nM] | Compound
21 | > 1000 | C[C@]1(C(N)=O)CC[C@@H](n2c(Nc3c(Cl)cc(F)cc3Cl)nc3cnc(N[C@@H]4CCC[C@@H](O)C4)nc32)CC1 [Example 621, (1S,4s)-4-(8-(2,6-dichloro-4-fluorophenylamino)-2-((1R,3R)-3-hydroxycyclohexylamino)-9H-purin-9-yl)-1-methylcyclohexanecarboxamide]
22 | 500 to 1000 | CC(C)OC(=O)N1CCC[C@@H](Nc2ncc3nc(Nc4c(F)cc(Cl)cc4F)n([C@H]4CC[C@@H](C(N)=O)CC4)c3n2)C1 [Example 773, (R)-isopropyl 3-(9-((1s,4S)-4-carbamoylcyclohexyl)-8-(4-chloro-2,6-difluorophenylamino)-9H-purin-2-ylamino)piperidine-1-carboxylate]
23 | > 1000 | CC(C)OC(=O)N1CCC[C@@H](Nc2ncc3nc(Nc4c(F)cc(F)cc4Cl)n([C@H]4CC[C@@H](C(N)=O)CC4)c3n2)C1 [Example 767, (R)-isopropyl 3-(9-((1s,4S)-4-carbamoylcyclohexyl)-8-(2-chloro-4,6-difluorophenylamino)-9H-purin-2-ylamino)piperidine-1-carboxylate]
24 | > 1000 | CC(C)OC(=O)N1CCC[C@@H](Nc2ncc3nc(Nc4c(Cl)cc(C(F)(F)F)cc4Cl)n([C@H]4CC[C@@H](C(N)=O)CC4)c3n2)C1 [Example 770, (R)-isopropyl 3-(9-((1s,4S)-4-carbamoylcyclohexyl)-8-(2,6-dichloro-4-(trifluoromethyl)phenylamino)-9H-purin-2-ylamino)piperidine-1-carboxylate]
25 | < 250 | C[C@]1(C(N)=O)CC[C@@H](n2c(Nc3c(F)cc(Cl)cc3Cl)nc3cnc(N[C@H]4CCC[C@H](O)C4)nc32)CC1 [Example 612, (1R,4s)-4-(8-(2,4-dichloro-6-fluorophenylamino)-2-((1S,3S)-3-hydroxycyclohexylamino)-9H-purin-9-yl)-1-methylcyclohexanecarboxamide]
26 | > 1000 | NC(=O)[C@H]1CC[C@@H](n2c(Nc3c(Cl)cc(Cl)cc3Cl)nc3cnc(NC[C@@H]4CCCC[C@H]4O)nc32)CC1 [Example 661, (1R,4s)-4-(2-(((1S,2R)-2-hydroxycyclohexyl)methylamino)-8-(2,4,6-trichlorophenylamino)-9H-purin-9-yl)cyclohexanecarboxamide]
27 | 250 to 500 | C[C@]1(C(N)=O)CC[C@@H](n2c(Nc3c(F)cc(Cl)cc3Cl)nc3cnc(N[C@H]4CC[C@H](O)C4)nc32)CC1 [Example 646, (1R,4s)-4-(8-(2,4-dichloro-6-fluorophenylamino)-2-((1S,3S)-3-hydroxycyclopentylamino)-9H-purin-9-yl)-1-methylcyclohexanecarboxamide]

Same assay, conditions: Lox-IMVI anti-proliferative assay, IC50 activity level; read-out: Activity

Row | IC50 [nM] | Compound
28 | > 1000 | N#Cc1cc(F)c(Nc2nc3cnc(N[C@H]4CCCOCC4)nc3n2C2CCC(C(N)=O)CC2)c(F)c1 (stereo partly shown) [Example 542, (1s,4s)-4-(8-(4-cyano-2,6-difluorophenylamino)-2-(oxepan-4-ylamino)-9H-purin-9-yl)cyclohexanecarboxamide]
